Experimental findings from US10421755B2, “Salts of aza-bicyclic di-aryl ethers and methods to make them or their precursors” (Novartis AG, priority 2011, dated 2019) are described below.

Holding throughout (assay type): physicochemical
Data set [1] in a line: Hygroscopicity (moisture gain at relative humidity). The arrangement: Hygroscopy @ 85% RH: unit not given here. As to conditions: for moisture gain: at 85% relative humidity (RH); for Hygroscopy @ 85% RH: comparison table, Example 7.
Data set [2] in a line: Loss on drying / initial water content. As to conditions: for Initial water content: comparison table, Example 7. The arrangement: Initial water content: unit not given here.
A short description of data set [3]: Decomposition temperature. Also on record: unit not given here. Particulars: comparison table, Example 7.
Data set [4] is described as follows: Known multiple solid forms. As to conditions: comparison table, Example 7.
The nature of data set [5]: Stability in buffer solutions and in solid state.

As for `Cc1ccc(-c2ccc(O[C@H]3CN4CCC3CC4)cn2)cc1.O=C(O)CCC(=O)O` [Form A of the mono-succinate salt, mono-succinate salt of (R)-3-(6-(4-methylphenyl)-pyridin-3-yloxy)-1-aza-bicyclo[2.2.2]octane], in data set [1], the moisture gain was found to be 0.3% and the “Hygroscopy @ 85% RH” value is 0.3. In data set [2], the “Loss on drying (LOD) of a sample” value is “about 4.5%” and the Initial water content is given as roughly 4.5. In data set [3], this compound registered a Decomposition temperature of 222. For the same compound, the “Known Multiple forms” value in data set [4] is listed as “Yes”.
As to `Cc1ccc(-c2ccc(O[C@H]3CN4CCC3CC4)cn2)cc1.O=C(O)/C=C\C(=O)O` [mono-maleate salt, mono-maleate salt of (R)-3-(6-(4-methylphenyl)-pyridin-3-yloxy)-1-aza-bicyclo[2.2.2]octane], in data set [1], the “hygroscopicity (in words)” value was “slightly hygroscopic”, the moisture gain is recorded as 0.3% and the “Hygroscopy @ 85% RH” value is on record as 0.3. Also, in data set [2], the “Loss on drying (LOD) of a sample” value is reported as less than 0.03% and the Initial water content is less than 0.1. Further, in data set [5], the solid-state stability entry was “good”. The “stability in buffer solutions” value in data set [5] (many buffer solutions, various pH values) is listed as “good stability”. In addition, the Decomposition temperature in data set [3] stood at 207. Further, the “Known Multiple forms” value in data set [4] is reported as “No”.
`Cc1ccc(-c2ccc(O[C@H]3CN4CCC3CC4)cn2)cc1.O=P(O)(O)O` [Form A of the mono-phosphate salt, mono-phosphate salt of (R)-3-(6-(4-methylphenyl)-pyridin-3-yloxy)-1-aza-bicyclo[2.2.2]octane]: in data set [1], the “hygroscopicity (in words)” value was “slightly hygroscopic”, the moisture gain worked out at 0.2% and the “Hygroscopy @ 85% RH” value is 0.2. Moreover, in data set [2], the “Loss on drying (LOD) of a sample” value is recorded as “about 0.5%” and the Initial water content is listed as roughly 0.5. The same compound registered a Decomposition temperature in data set [3] of 222. In data set [4], the “Known Multiple forms” value is on record as “Yes”.
Take `Cc1ccc(-c2ccc(O[C@H]3CN4CCC3CC4)cn2)cc1.O=C(O)CC(=O)O` [mono-malonate salt, mono-malonate salt of (R)-3-(6-(4-methylphenyl)-pyridin-3-yloxy)-1-aza-bicyclo[2.2.2]octane]: in data set [1], the “hygroscopicity (in words)” value is given as “slightly hygroscopic”, the moisture gain is 1.3% and the “Hygroscopy @ 85% RH” value stood at 1.3. Besides, in data set [2], the “Loss on drying (LOD) of a sample” value is 0% and the Initial water content is roughly 0. For the same compound, the Decomposition temperature in data set [3] is listed as 148. In data set [4], the “Known Multiple forms” value is listed as “No”.
On to `Cc1ccc(-c2ccc(O[C@H]3CN4CCC3CC4)cn2)cc1.Cl` [mono-hydrochloride salt, mono-hydrochloride salt of (R)-3-(6-(4-methylphenyl)-pyridin-3-yloxy)-1-aza-bicyclo[2.2.2]octane], for which, in data set [1], the “hygroscopicity (in words)” value was “hygroscopic”, the moisture gain result is on record as “about 5%” and the “Hygroscopy @ 85% RH” value is roughly 5. Moreover, in data set [2], the “Loss on drying (LOD) of a sample” value is listed as “about 5%” and the Initial water content is roughly 5. Further, the Decomposition temperature in data set [3] is listed as 262. In addition, the “Known Multiple forms” value in data set [4] was “Yes”.
